Measurements taken from ChEMBL document CHEMBL1158224, “Bioactive ent-kaurene diterpenoids from Annona senegalensis” (J Nat Prod, 1996).
Values after ≈ are worked out from the molar mass of the structure shown.

How the values were obtained:
MCF7 = assay: Cytotoxicity against human MCF7 cells after 7 days by MTT assay; assay type: functional; conditions: MCF7, 168 h, read-out: ED50 (the source's name)
PC-3 = assay: Cytotoxicity against human PC3 cells after 7 days by MTT assay; assay type: functional; conditions: PC-3, 168 h, read-out: ED50 (the source's name)
A549 = assay: Cytotoxicity against human A549 cells after 7 days by MTT assay; assay type: functional; conditions: A549, 168 h, read-out: ED50 (the source's name)
HT-29 = assay: Cytotoxicity against human HT29 cells after 7 days by MTT assay; assay type: functional; conditions: HT-29, 168 h, read-out: ED50 (the source's name)
A498 = assay: Cytotoxicity against human A498 cells after 7 days by MTT assay; assay type: functional; conditions: A498, 168 h, read-out: ED50 (the source's name)
MIA PaCa-2 = assay: Cytotoxicity against human MIAPaCa2 cells after 7 days by MTT assay; assay type: functional; conditions: MIA PaCa-2, 168 h, read-out: ED50 (the source's name)
[1] = Toxicity against brine shrimp; assay type: organism-based; conditions: artemia, in vivo

CC(=O)OC[C@@]1(OC(C)=O)C[C@@]23CC[C@H]4[C@@](C)(CCC[C@@]4(C)C(=O)O)[C@H]2CC[C@@H]1C3
EC50 (MCF7): > 20 µg/mL
EC50 (PC-3): 17.7 µg/mL (≈ 42.1 µM)

COC(=O)[C@]1(C)CCC[C@@]2(C)[C@H]3CC[C@@H]4C[C@@]3(CC[C@@H]21)C[C@@H]4C(=O)O
EC50 (MCF7): > 20 µg/mL
EC50 (PC-3): 17.4 µg/mL (≈ 49.9 µM)

COc1cccc2c1C(=O)c1c(O)c3c(c(O)c1C2=O)C[C@@](O)(C(=O)CO)C[C@@H]3O[C@H]1C[C@H](N)[C@H](O)[C@H](C)O1 [DOXORUBICIN]
EC50 (A549): 0.00506 µg/mL (≈ 0.00931 µM)
EC50 (MCF7): 0.152 µg/mL (≈ 0.28 µM)
EC50 (HT-29): 0.0437 µg/mL (≈ 0.0804 µM)
EC50 (A498): 0.01 µg/mL (≈ 0.0184 µM)
EC50 (PC-3): 0.0223 µg/mL (≈ 0.041 µM)
EC50 (MIA PaCa-2): 0.00379 µg/mL (≈ 0.00697 µM)

C=C1C[C@@]23CC[C@H]4[C@@](C)(CCC[C@@]4(C)C(=O)O)[C@@H]2CC[C@@H]1C3 [KAURENOIC ACID]
LC50 [1]: 16 µg/mL (≈ 52.9 µM)
EC50 (A549): 13.6 µg/mL (≈ 44.9 µM)
EC50 (MCF7): 1 µg/mL (≈ 3.31 µM)
EC50 (HT-29): 31.4 µg/mL (≈ 104 µM)
EC50 (A498): 48 µg/mL (≈ 159 µM)
EC50 (PC-3): 15.2 µg/mL (≈ 50.2 µM)
EC50 (MIA PaCa-2): 22.1 µg/mL (≈ 73.2 µM)
